{"source": "patent US20130071415A1", "about": "“Heterocyclic Compounds as Janus Kinase Inhibitors” (BioCryst Pharmaceuticals, Inc., priority 2010, published 2013)", "note": "Structures can show the parent of a compound that is named as a salt."}
{"smiles": "c1cc2c(-c3cn[nH]c3)ncnn2c1", "note": "(as salt: HCl) [Compound 13c, 4-(1H-Pyrazol-4-yl)pyrrolo[1,2-f][1,2,4]triazine]", "values": [{"measurement": "melting point", "value": 245.8, "unit": "°C"}]}
